Assays:
[1] = test system: lower urinary tract obstruction model of rats (female); assay: Test Example 1: urination function in lower urinary tract obstruction model of female rats; format: in vivo; conditions: oral once a day 2 weeks, Compound A 10 mg/kg
From the text: A lower urinary tract obstruction model of rats was used as a test system. A test substance was orally administered to the lower urinary tract obstruction model repeatedly over two (2) weeks to examine the action on the urination function in the lower urinary tract obstruction model.
More specifically, the rats (female, Crl:CD(SD), 8-week-old; Charles River Laboratories Japan, Inc.) were operated to form lower urinary tract obstruction and repeatedly received oral administration of the test substance at a frequency of once a day over two (2) weeks. After the completion of the administration, each rat was subjected to bladder catheterization under anesthesia, cystometry under no anesthesia, then cystometry under urethane anesthesia, and euthanasia under deep anesthesia, and the tissues (bladder, kidney) of the rat were extracted or surgically removed. As a normal group, the rats without operation for forming lower urinary tract obstruction were used.
The test system, the test substances, and the dosage are as follows. • Normal group: 0.5 v/v % Polysorbate 80 solution, 10 mL/kg (n=6) • Solvent group (control group): 0.5 v/v % Polysorbate 80 solution, 10 mL/kg (n=15) • Group A: Compound A, 10 mg/kg (n=15) • Group B3: Compound B, 3 mg/kg (n=7) • Group B10: Compound B, 10 mg/kg (n=7)
After urination, the residual urine was aspirated from the outlet end of the catheter placed in the bladder to measure the volume (mL) of the residual urine.
After urination, the weight of the voided urine was measured to determine the voided volume (g=mL), and then the urination efficiency was calculated by the following equation: Urination efficiency (%)=[(Voided volume (mL))/(Voided volume (mL)+Residual urine volume (mL))]×100
Bladder capacity (mL)=Voided volume (mL)+Residual urine volume (mL)
Moreover, the wet weight of the extracted bladder and that of the extracted kidney were measured.

[2] = test system: rats having the urination disorder associated with diabetes; assay: Test Example 6: urination disorder model associated with streptozocin-induced diabetes, compound A versus compound C; format: in vivo; conditions: STZ diabetes model
Method: As described below, a model of a urination disorder associated with streptozocin-induced diabetes was prepared as a urination disorder model in accordance with Test Example 4 to evaluate the effects of the compound A and the compound C on a urination disorder. This model has no benign prostatic hyperplasia and is a model of a urination disorder associated with neuropathy and smooth muscle contraction disorder.
The body weights of Rats (male, Crl:CD(SD), 5-week-old; Charles River Laboratories Japan, Inc.) were measured. On the basis of the body weight, the rats were grouped or divided into two (2) groups. The day after the rats were grouped, a first group received intraperitoneal administration of a citrate buffer (pH 4.5) (10 mL/kg) having a concentration of 0.1 mmol/L, and a second group received intraperitoneal administration of streptozocin (STZ; Sigma-Aldrich) (50 mg/kg). Streptozocin (STZ) was administered in the form of a solution of streptozocin having a concentration of 5 mg/mL in the citrate buffer.
About one (1) week after streptozocin (STZ) was administered, the body weight and the fasting blood glucose were measured. In the streptozocin (STZ) administration group (the second group), individuals having a fasting blood glucose level of not less than 300 mg/dL were used as animals with induced diabetes. These animals with induced diabetes are a model having no abnormality of the prostate (having no benign prostatic hyperplasia). On the basis of the body weight and the fasting blood glucose level, the animals (models) with induced diabetes were grouped or divided into three (3) groups by randomized, multivariable block allocation.
To the three model groups with induced diabetes, a 0.5 v/v % Polysorbate 80 solution (0.5% P) (10 mL/kg), the compound A (3 mg/kg), and the compound C (dutasteride) (0.3 mg/kg) were orally administered, respectively, wherein the administration schedule in all groups was a frequency of once a day, only on weekdays, over four (4) weeks. Moreover, to the above-mentioned first group, a 0.5 v/v % Polysorbate 80 solution (0.5% P) (10 mL/kg) was orally administered in the same administration schedule (normal group). On the last day of administration, a cannula was inserted into and secured to the dome of the bladder under isoflurane anesthesia, and cystometry (Cystometogram, CMG) was conducted in the order of under awake condition and under urethane anesthesia to measure the intravesical pressure, the voided volume, and the residual urine volume. After the completion of the measurement, the blood was collected under deep isoflurane anesthesia, and then the prostate (ventral prostate, dorsolateral prostate) was extracted and each was weighed. Moreover, the blood glucose level in the collected blood was measured.
Normal group: citrate buffer 10 mL/kg (intraperitoneal administration), 0.5% P 10 mL/kg (oral administration) (n=10) • Solvent group (control group): STZ 50 mg/kg (intraperitoneal administration), 0.5% P 10 mL/kg (oral administration) (n=10) • Group A3: STZ 50 mg/kg (intraperitoneal administration), Compound A 3 mg/kg (oral administration) (n=10) • Group C0.3: STZ 50 mg/kg (intraperitoneal administration), Compound C (dutasteride) 0.3 mg/kg (oral administration) (n=10)
Urination parameter: In the same manner as in Test Example 4, the residual urine volume (mL) and the urination efficiency (%) were determined as urination parameters in each urination, and the average value of two measurements was taken as a measured value of each individual.
Prostate weight: In the same manner as in Test Example 4, the weight of the prostate (ventral prostate, dorsolateral prostate, and whole) was converted to a tissue weight per 100 g of the body weight. For Group A3, which received the compound A, and Group C0.3, which received the compound C, the inhibition rate of the weight of the prostate relative to the weight of the prostate in the solvent group was calculated (with one decimal place). […]

[3] = female rats, lower urinary tract obstruction, vs control group
[4] = Compound A 3 mg/kg, in comparison with the solvent group (p<0.05)
[5] = Compound A oral 3 mg/kg, 4 weeks
[6] = Compound A oral 3 mg/kg, relative to solvent group

CC(=O)O[C@]1(C(C)=O)C[C@@H](O)[C@H]2[C@@H]3C=C(Cl)C4=CC(=O)OC[C@]4(C)[C@H]3CC[C@@]21C [Compound A, 17α-acetoxy-6-chloro-15β-hydroxy-2-oxa-4,6-pregnadiene-3,20-dione]
survival rate ([1]; female lower urinary tract obstruction rats): no decrease | wet weights of the bladder and the kidney ([1]; female rats, lower urinary tract obstruction): in the direction of significantly inhibiting the increase | residual urine volume ([1]; female rats, lower urinary tract obstruction, vs control (solvent) group): significantly decreased | bladder capacity [1, 3]: significantly decreased | urination efficiency [1, 3]: increased | therapeutic effect on diabetes ([2]; Compound A 3 mg/kg): no therapeutic effect | weights of the ventral prostate, the dorsolateral prostate, and the whole prostate ([2]; Compound A 3 mg/kg, compared with the solvent group (P<0.05)): significant decrease | residual urine volume, cystometry (CMG) under awake condition [2, 4]: significantly decreased | urination efficiency, cystometry (CMG) under awake condition [2, 4]: significantly improved | bladder contraction force on urination by nomogram analysis ([2]; Compound A 3 mg/kg, in comparison with the solvent group and Group C0.3): strong bladder contraction force | effect on the blood glucose level ([2]; Compound A 3 mg/kg, vs solvent group): did not statistically affect | Blood glucose level [2, 5]: 972.4 ± 312.3 mg/dL | Prostate weight, dorsolateral prostate [2, 5]: 38.8 ± 4.2 mg/100 g body weight | Prostate weight, ventral prostate [2, 5]: 61.2 ± 12.4 mg/100 g body weight | Prostate weight, whole [2, 5]: 99.9 ± 15.5 mg/100 g body weight | Dorsolateral prostate atrophy rate [2, 6]: (40.2%) | Ventral prostate atrophy rate [2, 6]: (40.0%) | Whole prostate atrophy rate [2, 6]: (40.1%)

From US20240041899A1, “SOLID PREPARATION” (ASKA Pharmaceutical Co., Ltd., priority 2020, published 2024)
